Values after ≈ are worked out from the molar mass of the structure shown.
What was measured:
Type in all cases: functional
[1] = system: Bacillus subtilis; assay: Antibacterial activity against Bacillus subtilis at 50 ug/well after 24 hrs by agar well diffusion method; details: read-out: DIZ
[2] = Antifungal activity against Penicillium chrysogenum assessed as inhibition of spore germination at 100 ug/well after 48 hrs by agar well diffusion method
[3] = system: Klebsiella pneumoniae; assay: Antibacterial activity against Klebsiella pneumoniae at 100 ug/well after 24 hrs by agar well diffusion method; details: read-out: DIZ
[4] = Antifungal activity against Penicillium chrysogenum assessed as inhibition of spore germination at 25 ug/well after 48 hrs by agar well diffusion method
[5] = system: Pseudomonas aeruginosa; assay: Antibacterial activity against Pseudomonas aeruginosa at 25 ug/well after 24 hrs by agar well diffusion method; details: read-out: DIZ
[6] = system: Bacillus subtilis; assay: Antibacterial activity against Bacillus subtilis at 100 ug/well after 24 hrs by agar well diffusion method; details: read-out: DIZ
[7] = system: Klebsiella pneumoniae; assay: Antibacterial activity against Klebsiella pneumoniae at 12.5 ug/well after 24 hrs by agar well diffusion method; details: read-out: DIZ
[8] = system: Staphylococcus aureus; assay: Antibacterial activity against Staphylococcus aureus at 100 ug/well after 24 hrs by agar well diffusion method; details: read-out: DIZ
[9] = system: Klebsiella pneumoniae; assay: Antibacterial activity against Klebsiella pneumoniae at 50 ug/well after 24 hrs by agar well diffusion method; details: read-out: DIZ
[10] = system: Aspergillus niger; assay: Antifungal activity against Aspergillus niger assessed as inhibition of spore germination at 50 ug/well after 48 hrs by agar well diffusion method; details: read-out: DIZ
[11] = Antifungal activity against Penicillium chrysogenum assessed as inhibition of spore germination at 50 ug/well after 48 hrs by agar well diffusion method
[12] = system: Pseudomonas aeruginosa; assay: Antibacterial activity against Pseudomonas aeruginosa at 12.5 ug/well after 24 hrs by agar well diffusion method; details: read-out: DIZ
[13] = system: Aspergillus niger; assay: Antifungal activity against Aspergillus niger assessed as inhibition of spore germination at 100 ug/well after 48 hrs by agar well diffusion method; details: read-out: DIZ
[14] = Antifungal activity against Penicillium chrysogenum assessed as inhibition of spore germination at 12.5 ug/well after 48 hrs by agar well diffusion method
[15] = system: Bacillus subtilis; assay: Antibacterial activity against Bacillus subtilis at 25 ug/well after 24 hrs by agar well diffusion method; details: read-out: DIZ
[16] = system: Aspergillus niger; assay: Antifungal activity against Aspergillus niger assessed as inhibition of spore germination at 25 ug/well after 48 hrs by agar well diffusion method; details: read-out: DIZ
[17] = system: Klebsiella pneumoniae; assay: Antibacterial activity against Klebsiella pneumoniae at 25 ug/well after 24 hrs by agar well diffusion method; details: read-out: DIZ
[18] = system: Staphylococcus aureus; assay: Antibacterial activity against Staphylococcus aureus at 25 ug/well after 24 hrs by agar well diffusion method; details: read-out: DIZ
[19] = system: Bacillus subtilis; assay: Antibacterial activity against Bacillus subtilis at 12.5 ug/well after 24 hrs by agar well diffusion method; details: read-out: DIZ
[20] = system: Pseudomonas aeruginosa; assay: Antibacterial activity against Pseudomonas aeruginosa at 50 ug/well after 24 hrs by agar well diffusion method; details: read-out: DIZ
[21] = system: Staphylococcus aureus; assay: Antibacterial activity against Staphylococcus aureus at 12.5 ug/well after 24 hrs by agar well diffusion method; details: read-out: DIZ
[22] = system: Aspergillus niger; assay: Antifungal activity against Aspergillus niger assessed as inhibition of spore germination at 12.5 ug/well after 48 hrs by agar well diffusion method; details: read-out: DIZ
[23] = system: Staphylococcus aureus; assay: Antibacterial activity against Staphylococcus aureus at 50 ug/well after 24 hrs by agar well diffusion method; details: read-out: DIZ
[24] = system: Pseudomonas aeruginosa; assay: Antibacterial activity against Pseudomonas aeruginosa at 100 ug/well after 24 hrs by agar well diffusion method; details: read-out: DIZ
[25] = system: Penicillium chrysogenum; assay: Fungicidal activity against Penicillium chrysogenum assessed as inhibition of spore germination after 48 hrs
[26] = Antifungal activity against Penicillium chrysogenum assessed as inhibition of spore germination after 48 hrs by broth dilution method
[27] = system: Bacillus subtilis; assay: Antibacterial activity against Bacillus subtilis after 24 hrs by broth dilution method
[28] = system: Pseudomonas aeruginosa; assay: Ratio of MBC to MIC for Pseudomonas aeruginosa
[29] = system: Klebsiella pneumoniae; assay: Antibacterial activity against Klebsiella pneumoniae after 24 hrs by broth dilution method
[30] = system: Staphylococcus aureus; assay: Bactericidal activity against Staphylococcus aureus after 24 hrs
[31] = system: Klebsiella pneumoniae; assay: Bactericidal activity against Klebsiella pneumoniae after 24 hrs
[32] = system: Aspergillus niger; assay: Antifungal activity against Aspergillus niger assessed as inhibition of spore germination after 48 hrs by broth dilution method
[33] = system: Penicillium chrysogenum; assay: Ratio of MFC to MIC for Penicillium chrysogenum
[34] = system: Aspergillus niger; assay: Fungicidal activity against Aspergillus niger assessed as inhibition of spore germination after 48 hrs
[35] = system: Pseudomonas aeruginosa; assay: Bactericidal activity against Pseudomonas aeruginosa after 24 hrs
[36] = system: Pseudomonas aeruginosa; assay: Antibacterial activity against Pseudomonas aeruginosa after 24 hrs by broth dilution method
[37] = system: Staphylococcus aureus; assay: Antibacterial activity against Staphylococcus aureus after 24 hrs by broth dilution method
[38] = system: Bacillus subtilis; assay: Bactericidal activity against Bacillus subtilis after 24 hrs

SMILES	zone of inhibition at 50 µg/disc [1] [mm]	inhibition zone (IZ) [2] [mm]	zone of inhibition at 100 µg/disc [3] [mm]	inhibition zone (IZ) [4] [mm]	zone of inhibition at 25 µg/disc [5] [mm]	zone of inhibition at 100 µg/disc [6] [mm]	zone of inhibition at 12.5 µg/disc [7] [mm]	zone of inhibition at 100 µg/disc [8] [mm]	zone of inhibition at 50 µg/disc [9] [mm]	zone of inhibition at 50 µg/disc [10] [mm]	inhibition zone (IZ) [11] [mm]	zone of inhibition at 12.5 µg/disc [12] [mm]	zone of inhibition at 100 µg/disc [13] [mm]	inhibition zone (IZ) [14] [mm]	zone of inhibition at 25 µg/disc [15] [mm]	zone of inhibition at 25 µg/disc [16] [mm]	zone of inhibition at 25 µg/disc [17] [mm]	zone of inhibition at 25 µg/disc [18] [mm]	zone of inhibition at 12.5 µg/disc [19] [mm]	zone of inhibition at 50 µg/disc [20] [mm]	further results
Nc1nnc(CS(=O)(=O)c2n[nH]cc2-c2ccccc2)s1	27	36	32	32	23	29	26	24	30	27	34	22	29	30	26	25	28	21	25	25	zone of inhibition at 12.5 µg/disc [21]: 20 mm; zone of inhibition at 12.5 µg/disc [22]: 23 mm; zone of inhibition at 50 µg/disc [23]: 22 mm; zone of inhibition at 100 µg/disc [24]: 27 mm
Nc1nnc(CS(=O)(=O)c2c[nH]cc2-c2ccc(Cl)cc2)s1	23	37	34	32	22	25	28	23	32	19	34	20	21	29	22	17	30	19	21	24	MFC [25]: > 200 µg/mL; MIC [26]: 50 µg/mL (≈ 141 µM); MIC [27]: 50 µg/mL (≈ 141 µM); Ratio [28]: >2; MIC [29]: 25 µg/mL (≈ 70.5 µM); MBC [30]: > 200 µg/mL; MBC [31]: > 100 µg/mL; MIC [32]: 25 µg/mL (≈ 70.5 µM); Ratio [33]: >2; MFC [34]: 100 µg/mL (≈ 282 µM); MBC [35]: 100 µg/mL (≈ 282 µM); MIC [36]: 25 µg/mL (≈ 70.5 µM); MIC [37]: 50 µg/mL (≈ 141 µM); MBC [38]: > 200 µg/mL; zone of inhibition at 12.5 µg/disc [21]: 17 mm; zone of inhibition at 12.5 µg/disc [22]: 15 mm; zone of inhibition at 50 µg/disc [23]: 21 mm; zone of inhibition at 100 µg/disc [24]: 26 mm
Nc1nnc(CS(=O)(=O)/C=C\c2ccc(Cl)cc2)s1	30	41	38	35	26	32	32	26	36	31	37	24	32	34	29	29	34	23	28	28	MFC [25]: 25 µg/mL (≈ 79.2 µM); MIC [26]: 12.5 µg/mL (≈ 39.6 µM); MIC [27]: 25 µg/mL (≈ 79.2 µM); Ratio [28]: 2; MIC [29]: 12.5 µg/mL (≈ 39.6 µM); MBC [30]: > 100 µg/mL; MBC [31]: 50 µg/mL (≈ 158 µM); MIC [32]: 12.5 µg/mL (≈ 39.6 µM); Ratio [33]: 2; MFC [34]: 50 µg/mL (≈ 158 µM); MBC [35]: 12.5 µg/mL (≈ 39.6 µM); MIC [36]: 6.25 µg/mL (≈ 19.8 µM); MIC [37]: 25 µg/mL (≈ 79.2 µM); MBC [38]: 100 µg/mL (≈ 317 µM); zone of inhibition at 12.5 µg/disc [21]: 22 mm; zone of inhibition at 12.5 µg/disc [22]: 27 mm; zone of inhibition at 50 µg/disc [23]: 24 mm; zone of inhibition at 100 µg/disc [24]: 34 mm

From ChEMBL document CHEMBL3867433, “Synthesis and antimicrobial activity of styryl/pyrrolyl/pyrazolyl sulfonylmethyl-1,3,4-oxadiazolyl amines and styryl/pyrrolyl/pyrazolyl sulfonylmethyl-1,3,4-thiadiazolyl amines” (2016)
